Experiment: gradient 5% acetonitrile 3 min, to 50% in 2 min, to 85% in 15 min, held 3 min, 100 µL/min
Conditions: column: Zorbax Extend-C18 2.1 x 50 mm; eluents: water / acetonitrile, 0.1% formic acid
Method in brief: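 The mobile phases were water and acetonitrile, each with 0.1% formic acid, pumped at 100 μL/min through a Zorbax Extend-C18 column (2.1 × 50 mm, 1.8 μm). Pure standards were injected as mixtures of ~100 molecules and detected by a quadrupole time-of-flight mass spectrometer in positive and negative ionization mode. Retention time came from computationally picked adduct peaks, each inspected by hand.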

Row | SMILES | RP-LC retention time [s]
1 | CCOc1ccc(CC(=O)NC2CCN(c3cc(-c4ccc(Cl)cc4)[nH]n3)C2)cc1OCC (stereo not given) | 803
2 | O=C(CCn1cnc2cc(-c3noc(CCc4c[nH]c5ccccc45)n3)ccc21)N1CCCC1 | 734
3 | CCc1nc(-c2csc(S(=O)(=O)N3CCC(C(=O)Nc4cc(C)cc(C)c4)CC3)c2)no1 | 1090
4 | O=C(C1=CN(c2ccc(Cl)cc2)c2ccccc2S1(=O)=O)N1CCCC1 | 827
5 | COc1ccc(-c2nnc(-c3ccc(Cl)c(S(=O)(=O)N(C)C)c3)o2)cc1OC | 904
6 | O=C(NCc1ccco1)N1CCOCC1 | 568
7 | Cc1ccc2nc(SCC(=O)N3CCCCC3)[nH]c2c1 | 590
8 | O=C(c1ccc(Br)o1)N1C[C@@H](CO)[C@H](c2ccncc2)C1 | 515
9 | CCn1c(=O)c(C)nc2cc(-c3noc(-c4ccccc4C)n3)ccc21 | 1190
10 | CCOc1ccc2ncc(C#N)c(NCc3ccc(OC)c(OC)c3)c2c1 | 663
11 | Cc1cc(C)cc(NC(=O)N2CCC(n3cnc4ccc(Cl)cc4c3=O)CC2)c1 | 817
12 | COc1cc(NC(=O)CN2C(=O)C(C)(C)c3cc(C)ccc32)cc(OC)c1OC | 823
13 | Cc1[nH]c(C(=O)N2CCC(CC(=O)NCc3cccc(Cl)c3)CC2)c(C)c1C(=O)OC(C)C | 868
14 | Cc1ccccc1CNC(=O)c1cc2n(n1)CC(C)(C(=O)NC1CCCC1)N(C)C2=O (stereo not given) | 767
15 | CCN1C(=O)c2cc(C(=O)NCc3ccc(C)cc3)nn2CC1(C)C(=O)NC1CCCC1 (stereo not given) | 766
16 | COC[C@@H]1CN(S(=O)(=O)c2ccc(F)cc2)C[C@H]1c1ccncc1 | 639
17 | O=C(NCCn1nnc2cc(C(=O)N3CCCC3)ccc21)Nc1ccccc1Cl | 892
18 | CCN(CC)c1nc(C(=O)N2CCC(N3CCCCC3)CC2)nc2nc(C)cc(C)c12 | 568
19 | Cc1cc2c(cc1C)[n+](=O)c(C(=O)/C=C/c1ccccc1[N+](=O)[O-])c(C)n2[O-] | 806
20 | Cc1cnc(C2CN(C(=O)C(C)C)C2)n1CC1CC1 | 562
21 | O=C(CSc1nccc(N2CCC(Cc3ccccc3)CC2)n1)NCCCc1ccccc1 | 906
22 | CCn1cnc2ccc(-c3noc(-c4ccc(OC)cc4)n3)cc21 | 753

Row | SMILES | RP-LC retention time [s]
23 | O=C(Cn1cccc1-c1nnc(-c2ccccc2)o1)Nc1ccc(F)c(F)c1 | 997
24 | CCCC(=O)N1CCCN(C2=NS(=O)(=O)C(c3ccc(Cl)cc3)=C2C)CC1 | 834
25 | Cc1oc(-c2[nH]ncc2C(=O)N2CCCC2)cc1S(=O)(=O)N1CCC(C)CC1 | 746
26 | Cc1cccc2nnc(N3CCN(C(=O)c4ccc(Cl)s4)CC3)n12 | 701
27 | Cc1cc(F)ccc1NC(=O)c1cc2n(n1)CC(C)(C(=O)NC1CCCCC1)N(C)C2=O (stereo not given) | 776
28 | Cc1cc(C)cc(NC(=O)Cn2c(C)nc3c(sc4nc(-c5ccccc5)ccc43)c2=O)c1 | 1050
29 | CCCS(=O)(=O)N1CC(=O)N(c2cc(Cl)ccc2C)C(C)(C(=O)NC2CCCCC2)C1 (stereo not given) | 982
30 | CN1C(=O)C2CCCCN2c2ccc(C(=O)N3CCN(c4ccccn4)CC3)cc21 (stereo not given) | 603
31 | CCN(CCN(C)C)c1ccc(C(=O)O)cc1NS(=O)(=O)c1ccccc1 | 610
32 | CC(C)c1nc(-c2ccc(OC3CCNC3)cc2)no1 (stereo not given) | 631
33 | Cc1ccc(C(=O)N2CCN(c3nnc4cccc(C)n34)CC2)cc1C | 705
34 | Cc1cc(-c2ccc(S(=O)(=O)N3CCN(c4ccccn4)CC3)c(C)c2)on1 | 697
35 | Cc1ccc(NC(=O)CSc2nc(=O)n(CCN(C)C)c3c2CCC3)cc1 | 636
36 | COCCNC(=O)C(C)n1c(=O)c(C(F)(F)F)nc2cc(C)c(C)cc21 (stereo not given) | 986
37 | CCn1ccc2c(cc(C(=O)Nc3ccc(Br)c(C)c3)n2C)c1=O | 895
38 | COc1ccc(NC(=O)C2CCc3nc(N4CCOCC4)ncc3C2)cc1C(F)(F)F (stereo not given) | 858
39 | Cc1ccc2nc(-c3ccccc3F)c(Nc3c(C)cccc3C)n2c1 | 793
40 | CC(C)n1c(=O)sc2cc(S(=O)(=O)N3CCC(C(=O)NCc4cccs4)CC3)ccc21 | 885
41 | CO[C@H]1CN(C2CCN(S(=O)(=O)c3cccc4cccnc34)CC2)[C@H]1c1cccnc1 | 605
42 | CCCNC(=O)c1cn(-c2ncccc2-c2nc(-c3ccccc3)no2)cn1 | 823
43 | CCOc1ccccc1NC(=O)CSc1nccc(N2CCN(c3cc(C)ccc3C)CC2)n1 | 861
44 | COCC(=O)N1CCc2c([nH]c3ccccc23)C1c1ccccc1 (stereo not given) | 935

Row | SMILES | RP-LC retention time [s]
45 | O=C(CN1CCc2[nH]c3c(F)c(Cl)ccc3c(=O)c2C1)NCc1ccccc1F | 664
46 | Cc1ccc(N2C(=O)N(CC(=O)N3CCC(C)CC3)C3CS(=O)(=O)CC32)cc1Cl (stereo not given) | 879
47 | COc1ccc(-c2nc(CSc3nc4ccccc4n4c(C)nnc34)c(C)o2)cc1 | 854
48 | CC(C)CCNC(=O)C1(C)Cn2nc(C(=O)NCCc3c[nH]c4ccccc34)cc2C(=O)N1C (stereo not given) | 786
49 | CCCOc1nccnc1NC1CCN(C(=O)c2ccco2)CC1 | 748
50 | Cc1nnc(-c2c(S(=O)(=O)NC3CCN(Cc4ccccc4)CC3)c(C)n(C)c2C)o1 | 602
51 | CS(=O)(=O)NCC1CCN(C(=O)c2ccccc2F)CC1 | 608
52 | CCOc1ccc(Cl)cc1S(=O)(=O)N1CCC(C(=O)NC2CCCC2)CC1 | 916
53 | CCOC(=O)c1c(C)n(-c2ccc(OC)cc2)c2ccc(OCC(N)=O)cc12 | 909
54 | CCn1cc(S(=O)(=O)N2CCCC(n3c(C)cnc3-c3ccccc3)C2)cn1 (stereo not given) | 639
55 | O=C1NCCCCCCN(Cc2ccc(F)cc2F)[C@H]2CCC[C@@H]12 | 646
56 | CC1CCCC(NC(=O)CCn2cnc3onc(-c4ccc(F)cc4)c3c2=O)C1C (stereo not given) | 1050
57 | CCn1cc(CC(=O)NCc2cc(F)cc(F)c2)c2cccnc21 | 739
58 | CCn1c(C)c(CN2CCC(C(=O)NCc3ccc(C)cc3)CC2)c2ccccc21 | 733
59 | O=C(NCCCc1ccccc1)C1CCN(C(=O)c2ncn3c2COC(c2ccccc2)C3)CC1 (stereo not given) | 821
60 | CNC(=O)C1CCCN(c2nc3ncn(CC(=O)Nc4cc(Cl)ccc4C)c(=O)c3s2)C1 (stereo not given) | 669
61 | Cc1cc(NC(=O)c2ccccc2C(F)(F)F)n(-c2nc(-c3cccs3)cs2)n1 | 1250
62 | Cc1cc2[nH]c(C(=O)Nc3cc(F)cc(F)c3)c(CN3CCOCC3)c2s1 | 738
63 | CCc1noc(NC(C)=O)c1-c1ccc(OC)c(S(=O)(=O)Nc2ccc(Cl)cc2C)c1 | 841
64 | O=C(Cn1c(=O)n(C2CC2)c(=O)c2nscc21)NCCC1=CCCCC1 | 776
65 | Cc1ccc(C)c(NC(=O)CC2COc3ccccc3NC2=O)c1 (stereo not given) | 738

Reference: the METLIN SMRT retention time set (Domingo-Almenara et al. 2019)
